Source: publication PMC5418449, “Characterisation of CCT271850, a selective, oral and potent MPS1 inhibitor, used to directly measure in vivo MPS1 inhibition vs therapeutic efficacy” (British Journal of Cancer, 2017)

Key:
Design in all cases: 14-day clonogenic growth inhibition assay, human cancer cell line panel
Settings in all cases: 14-day clonogenic assay; inhibitor; read-out: Table S1. IC50 of CCT271850 determined by MTT and clonogenic assays (CA). / All cell lines were tested at least 2 times. / 14-day CA
RMG1 = system: RMG1
Procedure: (§1) To evaluate CCT271850 antiproliferation effects in a large panel of human cancer cell lines, 91 cell lines were treated for 72 h and 14 days at different compound concentrations in growth inhibition assays. The growth inhibition values as measured by IC50 are summarised in Table 2 and Supplementary Table S1. […] Cell lines from colon and head and neck cancers were among the most sensitive.

PATU-8902 = system: PATU-8902
Procedure: as §1

Suit-2 = system: Suit-2
Procedure: as §1

015B = system: 015B
Procedure: as §1

Lon-HN5 = system: Lon-HN5
Procedure: as §1

Kuramochi = system: Kuramochi
Procedure: as §1

IGROV1 = system: IGROV1
Procedure: as §1

011B = system: 011B
Procedure: as §1

SKOV3 = system: SKOV3
Procedure: as §1

OVCAR5 = system: OVCAR5
Procedure: as §1

Miapaca-2 = system: Miapaca-2
Procedure: as §1

A2780 = system: A2780
Procedure: as §1

KGN = system: KGN
Procedure: as §1

EF027 = system: EF027
Procedure: as §1

HN3 = system: HN3
Procedure: as §1

005B = system: 005B
Procedure: as §1

O13 = system: O13
Procedure: as §1

SMOV2 = system: SMOV2
Procedure: as §1

TYK-Nu = system: TYK-Nu
Procedure: as §1

OVCAR4 = system: OVCAR4
Procedure: as §1

PT45 = system: PT45
Procedure: as §1

PATU-8988S = system: PATU-8988S
Procedure: as §1

SW626 = system: SW626
Procedure: as §1

OVCAR8 = system: OVCAR8
Procedure: as §1

TOV21G = system: TOV21G
Procedure: as §1

PATU-8988T = system: PATU-8988T
Procedure: as §1

CFPAC-1 = system: CFPAC-1
Procedure: as §1

PJ41 = system: PJ41
Procedure: as §1

OVCAR3 = system: OVCAR3
Procedure: as §1

EF021 = system: EF021
Procedure: as §1

OAW28 = system: OAW28
Procedure: as §1

Det562 = system: Det562
Procedure: as §1

011A = system: 011A
Procedure: as §1

CAL27 = system: CAL27
Procedure: as §1

OAW42 = system: OAW42
Procedure: as §1

CaoV3 = system: CaoV3
Procedure: as §1

PANC-1 = system: PANC-1
Procedure: as §1

IC50 (SKOV3): 58 nM | IC50 (OVCAR5): 82 nM | IC50 (Miapaca-2): 68 nM | IC50 (A2780): 105 nM | IC50 (OVCAR4): 62 nM | IC50 (SW626): 32 nM | IC50 (OVCAR8): 101 nM | IC50 (OVCAR3): 99 nM | IC50 (PANC-1): 74 nM
Compound: COc1cc(-c2cnn(C)c2)ccc1Nc1ncc2ccnc(N[C@@H](C)C(C)(C)C)c2n1 [34h, CCT271850]
IC50 (RMG1): 42 nM | IC50 (PATU-8902): 28 nM | IC50 (Suit-2): 87 nM | IC50 (015B): 59 nM | IC50 (Lon-HN5): 44 nM | IC50 (Kuramochi): 34 nM | IC50 (IGROV1): 48 nM | IC50 (011B): 21 nM | IC50 (KGN): 106 nM | IC50 (EF027): 37 nM | IC50 (HN3): 5.2 nM | IC50 (005B): 45 nM | IC50 (O13): 21 nM | IC50 (SMOV2): 14 nM | IC50 (TYK-Nu): 73 nM | IC50 (PT45): 59 nM | IC50 (PATU-8988S): 110 nM | IC50 (TOV21G): 7.8 nM | IC50 (PATU-8988T): 87 nM | IC50 (CFPAC-1): 63 nM | IC50 (PJ41): 0.8 nM | IC50 (EF021): 72 nM | IC50 (OAW28): 61 nM | IC50 (Det562): 46 nM | IC50 (011A): 20 nM | IC50 (CAL27): 4 nM | IC50 (OAW42): 57 nM | IC50 (CaoV3): 75 nM
